Assay results: patent US6833342B2, “Method of deodorizing and/or cleaning carpet using a composition comprising odor control agent” (The Procter & Gamble Company, priority 1999, dated 2004)

Assay: Interaction of perfume components with cyclodextrin (CD interaction)
Type: physicochemical
Details: perfume component versus cyclodextrin
Description: Hydrophobic perfume ingredients have a tendency to complex with the cyclodextrins. The degree of hydrophobicity of a perfume ingredient can be correlated with its octanol/water partition coefficient P. The octanol/water partition coefficient of a perfume ingredient is the ratio between its equilibrium concentration in octanol and in water. A perfume ingredient with a greater partition coefficient P is considered to be more hydrophobic. Conversely, a perfume ingredient with a smaller partition coefficient P is considered to be more hydrophilic. […].
The following table illustrates the molecular weight property of some of the preferred perfume versus non-preferred perfume components.

Molecule	CD interaction
CC(=O)C1(C)CC2=C(CCCC2(C)C)CC1C (stereo not shown) [Iso-E Super]	weak
CC(=O)/C=C/C1C(C)=CCCC1(C)C (stereo not shown) [a-ionone]	strong
CC(C=O)Cc1ccc(C(C)C)cc1 (stereo not shown) [Cymal]	strong
CC1COCc2cc3c(cc21)C(C)(C)C(C)C3(C)C (stereo not shown) [Galaxolide]	weak
CCC(C)(O)CCCC(C)C (stereo not shown) [Tetrahydrolinalol]	significant
a-Me Ionone	strong
CCCCCCCCCCCCCC(=O)OC(C)C [Iso-propyl Myristate]	weak
O=C(Cc1ccccc1)OCCc1ccccc1 [Phenyl-Ethyl-Phenyl Acetate]	weak
CCCCCCC(C=O)=Cc1ccccc1 [Hexyl cinnamic Aldehyde]	weak
CC(C=O)Cc1ccc(C(C)(C)C)cc1 (stereo not shown) [Lilial, p-t-bucinal]	strong
CC(=O)C(C)=C(C)C(C)C(C)(C)C (stereo not shown) [Koavone]	strong
CCCCCC1C(=O)CCC1CC(=O)OC (stereo not shown) [Methyl Dihydro Jasmonate]	weak
CC(=O)OC(C)(C)C1CC=C(C)CC1 (stereo not shown) [Terpinyl Acetate]	significant
CC(=O)OC1CC2CC1C1CC=CC21 (stereo not shown) [Flor Acetate]	strong
CCC(=O)OC1CC2CC1C1CC=CC21 (stereo not shown) [Frutene]	strong
CCCCCCOC(=O)c1ccccc1O [Hexyl Salicylate]	weak
CC(C)(O)CCCC1=CCC(C=O)CC1 (stereo not shown) [Lyral]	weak
CC(=O)OC1CCC(C(C)(C)C)CC1 (stereo not shown) [Vertenex, para-tert-butylcyclohexyl acetate]	strong
CCOC(=O)c1ccccc1C(=O)OCC [Diethyl Phthalate]	weak
